Test results published in ChEMBL document CHEMBL1140726, “Discovery and biological evaluation of 5-aryl-2-furfuramides, potent and selective blockers of the Nav1.8 sodium channel with efficacy in models of neuropathic and inflammatory pain” (J Med Chem, 2008).
Values belong to the compound of their own block, whether it stands above or below them.

Assays:
[1] = biological target: Sodium channel protein type 10 subunit alpha (Mus musculus, UniProt Q6QIY3); test: Inhibition of mouse recombinant Nav 1.8 channel expressed in HEK293 cells by isotopic efflux assay; assay type: cell-based
[2] = biological target: Sodium channel protein type 3 subunit alpha (Homo sapiens) (UniProt Q9NY46); test: Inhibition of human Nav1.3 channel at 0.3 uM
[3] = biological target: Sodium channel protein type 9 subunit alpha (Homo sapiens) (UniProt Q15858); test: Inhibition of human Nav1.7 channel at 0.3 uM
[4] = biological target: T1, Sodium channel protein type 10 subunit alpha (Homo sapiens, UniProt Q9Y5Y9); test: Inhibition of human recombinant Nav 1.8 channel expressed in HEK293 cells at 0.03 uM; assay type: cell-based
[5] = biological target: T2, Nav1.5 (sodium channel protein type 5 subunit alpha) (Homo sapiens, UniProt Q14524); test: Inhibition of human Nav1.5 channel at 0.3 uM
[6] = biological target: Sodium channel protein type 2 subunit alpha (Homo sapiens) (UniProt Q99250); test: Inhibition of human Nav1.2 channel at 0.03 uM
[7] = biological target: T1, Sodium channel protein type 10 subunit alpha; test: Activity at human recombinant Nav 1.8 channel expressed in HEK293 cells in resting state with prepulse voltage of -100 mV assessed as blockade of TTx-resistant sodium current at 0.001 uM; assay type: cell-based
[8] = biological target: T1, Sodium channel protein type 10 subunit alpha; test: Activity at human recombinant Nav 1.8 channel expressed in HEK293 cells in inactivated state with prepulse voltage of -40 mV assessed as blockade of TTx-resistant sodium current at 0.001 uM; assay type: cell-based
[9] = Activity at rat dorsal root ganglion in inactivated state with prepulse voltage of -40 mV assessed as blockade of TTx-resistant sodium current at 0.003 uM by whole-cell patch clamp technique; assay type: functional
[10] = biological target: Sodium channel protein type 2 subunit alpha (Homo sapiens) (UniProt Q99250); test: Inhibition of human Nav1.2 channel at 0.3 uM
[11] = Activity at rat dorsal root ganglion in inactivated state with prepulse voltage of -40 mV assessed as blockade of TTx-resistant sodium current at 0.03 uM by whole-cell patch clamp technique; assay type: functional
[12] = Activity at rat dorsal root ganglion in resting state with prepulse voltage of -100 mV assessed as blockade of TTx-resistant sodium current at 0.03 uM by whole-cell patch clamp technique; assay type: functional
[13] = biological target: T1, Sodium channel protein type 10 subunit alpha; test: Inhibition of human recombinant Nav 1.8 channel expressed in HEK293 cells at 0.001 uM; assay type: cell-based
[14] = biological target: T2, Nav1.5 (sodium channel protein type 5 subunit alpha); test: Inhibition of human Nav1.5 channel at 0.03 uM
[15] = Activity at rat dorsal root ganglion in resting state with prepulse voltage of -100 mV assessed as blockade of TTx-resistant sodium current at 0.003 uM by whole-cell patch clamp technique; assay type: functional
[16] = biological target: T1, Sodium channel protein type 10 subunit alpha; test: Activity at human recombinant Nav 1.8 channel expressed in HEK293 cells in resting state with prepulse voltage of -100 mV assessed as blockade of TTx-resistant sodium current at 0.03 uM; assay type: cell-based
[17] = biological target: Voltage-gated inwardly rectifying potassium channel KCNH2 (Homo sapiens, UniProt Q12809); test: Inhibition of hERG potassium channel expressed in CHO cells by isotope efflux assay
[18] = biological target: T1, Sodium channel protein type 10 subunit alpha; test: Activity at human recombinant Nav 1.8 channel expressed in HEK293 cells in inactivated state with prepulse voltage of -40 mV assessed as blockade of TTx-resistant sodium current at 0.03 uM; assay type: cell-based

Sequence of Sodium channel protein type 10 subunit alpha (Mus musculus, UniProt Q6QIY3) (Q6QIY3 whole entry): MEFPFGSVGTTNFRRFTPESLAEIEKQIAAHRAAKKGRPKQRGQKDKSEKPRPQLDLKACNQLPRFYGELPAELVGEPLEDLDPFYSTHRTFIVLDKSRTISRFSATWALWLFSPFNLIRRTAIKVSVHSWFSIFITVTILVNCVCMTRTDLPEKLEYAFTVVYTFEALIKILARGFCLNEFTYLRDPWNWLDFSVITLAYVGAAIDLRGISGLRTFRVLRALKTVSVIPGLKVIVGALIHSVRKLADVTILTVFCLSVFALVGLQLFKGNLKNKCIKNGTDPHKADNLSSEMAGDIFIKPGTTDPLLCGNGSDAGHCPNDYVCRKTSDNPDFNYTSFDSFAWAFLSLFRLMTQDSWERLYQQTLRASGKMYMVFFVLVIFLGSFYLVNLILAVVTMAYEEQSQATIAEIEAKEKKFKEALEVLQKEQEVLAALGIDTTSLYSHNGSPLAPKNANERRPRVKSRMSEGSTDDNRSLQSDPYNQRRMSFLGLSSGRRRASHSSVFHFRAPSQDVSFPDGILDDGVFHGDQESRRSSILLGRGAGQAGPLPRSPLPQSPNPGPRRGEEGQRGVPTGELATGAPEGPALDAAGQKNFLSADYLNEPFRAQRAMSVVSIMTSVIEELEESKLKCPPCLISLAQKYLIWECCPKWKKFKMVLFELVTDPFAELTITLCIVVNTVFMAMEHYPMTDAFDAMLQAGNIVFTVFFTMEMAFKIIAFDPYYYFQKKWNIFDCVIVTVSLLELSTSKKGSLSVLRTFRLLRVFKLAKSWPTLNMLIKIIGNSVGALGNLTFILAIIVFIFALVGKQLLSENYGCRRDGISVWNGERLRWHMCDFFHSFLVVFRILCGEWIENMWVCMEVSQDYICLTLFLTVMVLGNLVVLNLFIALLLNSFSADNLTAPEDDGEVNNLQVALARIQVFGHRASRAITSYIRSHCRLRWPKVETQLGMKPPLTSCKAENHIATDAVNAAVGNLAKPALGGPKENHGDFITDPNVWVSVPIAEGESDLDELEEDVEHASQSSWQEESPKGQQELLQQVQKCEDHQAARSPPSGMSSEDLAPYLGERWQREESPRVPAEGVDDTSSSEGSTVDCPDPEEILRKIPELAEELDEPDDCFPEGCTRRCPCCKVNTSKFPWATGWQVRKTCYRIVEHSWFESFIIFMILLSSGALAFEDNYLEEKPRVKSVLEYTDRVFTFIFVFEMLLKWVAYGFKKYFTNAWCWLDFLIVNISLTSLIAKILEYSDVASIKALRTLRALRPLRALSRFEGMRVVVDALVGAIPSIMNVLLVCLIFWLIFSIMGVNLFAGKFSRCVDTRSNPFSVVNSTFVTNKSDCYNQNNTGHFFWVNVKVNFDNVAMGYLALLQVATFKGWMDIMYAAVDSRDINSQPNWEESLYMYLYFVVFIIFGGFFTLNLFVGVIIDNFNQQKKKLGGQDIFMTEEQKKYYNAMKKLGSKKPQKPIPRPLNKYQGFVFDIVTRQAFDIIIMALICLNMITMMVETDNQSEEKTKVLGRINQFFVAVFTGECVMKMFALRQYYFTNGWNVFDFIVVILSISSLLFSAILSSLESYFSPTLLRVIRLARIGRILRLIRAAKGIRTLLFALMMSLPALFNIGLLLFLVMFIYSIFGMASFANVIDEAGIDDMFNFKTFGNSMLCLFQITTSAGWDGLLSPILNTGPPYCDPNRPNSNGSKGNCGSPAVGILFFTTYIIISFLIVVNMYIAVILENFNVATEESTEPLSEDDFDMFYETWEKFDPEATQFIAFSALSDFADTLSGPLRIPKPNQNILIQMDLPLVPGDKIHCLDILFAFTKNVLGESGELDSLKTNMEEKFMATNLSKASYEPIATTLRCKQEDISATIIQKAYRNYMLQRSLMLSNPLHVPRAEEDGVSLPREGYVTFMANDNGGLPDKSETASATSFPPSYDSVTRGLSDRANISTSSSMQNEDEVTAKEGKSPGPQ
T1 sequence (Q9Y5Y9 whole entry, looked up): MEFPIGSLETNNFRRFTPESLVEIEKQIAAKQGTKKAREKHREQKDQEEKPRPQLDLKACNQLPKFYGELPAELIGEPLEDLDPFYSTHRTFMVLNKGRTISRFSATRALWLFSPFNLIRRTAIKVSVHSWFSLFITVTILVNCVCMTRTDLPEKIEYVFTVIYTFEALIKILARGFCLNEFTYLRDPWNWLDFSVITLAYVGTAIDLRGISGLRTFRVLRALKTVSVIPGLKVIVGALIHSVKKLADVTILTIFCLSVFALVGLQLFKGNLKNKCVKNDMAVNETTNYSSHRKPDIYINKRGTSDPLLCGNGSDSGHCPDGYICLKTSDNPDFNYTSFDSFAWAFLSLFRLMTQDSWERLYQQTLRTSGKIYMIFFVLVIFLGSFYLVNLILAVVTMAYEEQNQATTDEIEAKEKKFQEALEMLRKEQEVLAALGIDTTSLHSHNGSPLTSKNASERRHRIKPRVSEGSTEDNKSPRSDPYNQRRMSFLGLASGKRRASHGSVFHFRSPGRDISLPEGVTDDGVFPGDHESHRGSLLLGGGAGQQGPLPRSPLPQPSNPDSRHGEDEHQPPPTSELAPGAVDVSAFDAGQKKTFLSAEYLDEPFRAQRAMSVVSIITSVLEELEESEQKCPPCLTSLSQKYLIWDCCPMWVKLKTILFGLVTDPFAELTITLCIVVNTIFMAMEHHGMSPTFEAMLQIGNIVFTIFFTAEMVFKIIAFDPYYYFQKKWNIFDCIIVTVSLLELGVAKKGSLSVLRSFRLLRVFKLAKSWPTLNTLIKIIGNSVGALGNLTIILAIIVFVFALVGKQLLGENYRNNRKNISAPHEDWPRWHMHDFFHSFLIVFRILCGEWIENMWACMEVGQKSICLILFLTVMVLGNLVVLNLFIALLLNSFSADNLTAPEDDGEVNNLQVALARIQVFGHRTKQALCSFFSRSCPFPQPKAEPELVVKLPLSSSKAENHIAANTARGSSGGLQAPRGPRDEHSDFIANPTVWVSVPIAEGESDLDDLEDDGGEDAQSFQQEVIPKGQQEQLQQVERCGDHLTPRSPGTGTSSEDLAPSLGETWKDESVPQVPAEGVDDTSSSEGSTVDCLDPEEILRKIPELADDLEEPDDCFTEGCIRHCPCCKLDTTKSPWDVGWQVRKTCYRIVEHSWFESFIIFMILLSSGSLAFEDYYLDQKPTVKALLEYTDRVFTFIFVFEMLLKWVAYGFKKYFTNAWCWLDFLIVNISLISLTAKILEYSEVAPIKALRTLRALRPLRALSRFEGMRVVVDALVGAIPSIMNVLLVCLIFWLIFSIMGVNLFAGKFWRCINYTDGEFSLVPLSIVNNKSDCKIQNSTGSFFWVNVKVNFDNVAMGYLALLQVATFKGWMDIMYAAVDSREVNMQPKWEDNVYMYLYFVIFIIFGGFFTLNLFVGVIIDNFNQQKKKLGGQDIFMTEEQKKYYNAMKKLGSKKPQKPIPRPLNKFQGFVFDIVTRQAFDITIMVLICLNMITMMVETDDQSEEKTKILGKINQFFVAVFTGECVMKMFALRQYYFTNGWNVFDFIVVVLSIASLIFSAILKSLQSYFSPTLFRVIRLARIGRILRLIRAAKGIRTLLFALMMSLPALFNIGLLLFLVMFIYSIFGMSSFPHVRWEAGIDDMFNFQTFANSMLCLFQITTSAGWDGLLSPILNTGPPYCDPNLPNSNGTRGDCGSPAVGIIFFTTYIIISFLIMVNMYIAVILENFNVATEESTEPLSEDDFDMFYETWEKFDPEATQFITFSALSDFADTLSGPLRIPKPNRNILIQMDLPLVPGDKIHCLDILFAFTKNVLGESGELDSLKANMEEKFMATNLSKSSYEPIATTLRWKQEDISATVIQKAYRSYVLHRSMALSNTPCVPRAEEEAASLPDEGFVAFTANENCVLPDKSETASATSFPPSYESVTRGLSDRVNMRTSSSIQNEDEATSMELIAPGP
Sequence of Voltage-gated inwardly rectifying potassium channel KCNH2 (Q12809 whole entry): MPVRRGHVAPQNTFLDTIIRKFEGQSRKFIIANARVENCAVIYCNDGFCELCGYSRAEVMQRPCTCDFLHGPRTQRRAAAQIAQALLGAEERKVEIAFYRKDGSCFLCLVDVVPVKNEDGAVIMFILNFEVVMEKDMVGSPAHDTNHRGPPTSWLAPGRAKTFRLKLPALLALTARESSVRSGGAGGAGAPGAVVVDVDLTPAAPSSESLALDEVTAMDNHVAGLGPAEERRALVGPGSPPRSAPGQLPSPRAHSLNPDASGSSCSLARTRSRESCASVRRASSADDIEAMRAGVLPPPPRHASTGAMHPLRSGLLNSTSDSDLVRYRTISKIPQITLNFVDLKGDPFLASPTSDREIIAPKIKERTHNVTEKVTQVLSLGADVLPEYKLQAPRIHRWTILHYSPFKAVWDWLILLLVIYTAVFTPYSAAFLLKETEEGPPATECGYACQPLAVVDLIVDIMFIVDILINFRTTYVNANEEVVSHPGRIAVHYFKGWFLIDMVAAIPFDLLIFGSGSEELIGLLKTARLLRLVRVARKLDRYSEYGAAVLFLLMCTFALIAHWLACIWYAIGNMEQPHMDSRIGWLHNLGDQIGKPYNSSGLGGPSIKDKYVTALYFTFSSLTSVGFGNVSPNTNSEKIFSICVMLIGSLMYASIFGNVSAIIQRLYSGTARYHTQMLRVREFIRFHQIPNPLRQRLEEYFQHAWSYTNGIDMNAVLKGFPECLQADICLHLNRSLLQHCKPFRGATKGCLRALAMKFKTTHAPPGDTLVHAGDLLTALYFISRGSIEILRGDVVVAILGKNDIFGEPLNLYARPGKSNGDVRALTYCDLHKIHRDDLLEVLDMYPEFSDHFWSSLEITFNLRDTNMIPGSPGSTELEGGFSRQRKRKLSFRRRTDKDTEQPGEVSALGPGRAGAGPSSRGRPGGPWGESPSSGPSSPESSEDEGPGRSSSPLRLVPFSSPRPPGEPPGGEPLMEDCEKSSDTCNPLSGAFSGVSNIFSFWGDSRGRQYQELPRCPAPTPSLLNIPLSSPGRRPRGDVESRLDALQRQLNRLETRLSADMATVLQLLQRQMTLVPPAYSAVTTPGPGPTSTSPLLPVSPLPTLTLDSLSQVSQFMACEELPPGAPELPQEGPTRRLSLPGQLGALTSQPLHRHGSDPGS

IC50 [1]: 10 µM
Structure (SMILES): O=C(Nc1ccc2ncccc2c1)c1ccc(-c2ccc(Cl)cc2)o1

IC50 [1]: 1.7 µM
Structure (SMILES): N#CCc1cccc(NC(=O)c2ccc(-c3ccc(Cl)cc3)o2)c1

IC50 [1]: 20 µM
Structure (SMILES): Cc1cccc(NC(=O)c2coc(-c3ccc(Cl)cc3)c2)c1

IC50 [1]: > 30 µM
Structure (SMILES): O=C(c1ccc(-c2ccc(Cl)cc2)o1)N1CCOCC1

IC50 [1]: 30 µM
Structure (SMILES): Cc1cccc(NC(=O)c2ccc(-c3cccc(C#N)c3)o2)c1

Structure (SMILES): Cc1cccc(NC(=O)c2ccc(-c3ccc(S(C)(=O)=O)cc3)o2)c1
IC50 [1]: > 30 µM

IC50 [1]: 2.5 µM
Structure (SMILES): O=C(Nc1cccc(C2=NCCO2)c1)c1ccc(-c2ccc(Cl)cc2)o1

inhibition [2]: 24% | inhibition [3]: 70% | inhibition [4]: 99% | inhibition [6]: 91% | inhibition [7]: 46% | inhibition [8]: 76% | inhibition [10]: 94% | inhibition [13]: 76% | inhibition [16]: 94% | IC50 [1]: 0.03 µM | inhibition [18]: 99%
Structure (SMILES): Cc1cccc(N/C(=N/C#N)c2ccc(-c3ccc(Cl)cc3)o2)c1
inhibition at 0.3 µM [5]: 69% | inhibition at 0.003 µM [9]: 51% | inhibition at 0.03 µM [11]: 71% | inhibition at 0.03 µM [12]: 45% | inhibition at 0.03 µM [14]: 32% | inhibition at 0.003 µM [15]: 22% | IC50 [17]: > 30 µM

IC50 [1]: 1.9 µM
Structure (SMILES): O=C(NCCc1ccccc1Cl)c1ccc(-c2ccc(Cl)cc2)o1

IC50 [1]: 5.3 µM
Structure (SMILES): Cc1cccc(NC(=O)c2cc(-c3ccc(Cl)cc3)co2)c1

IC50 [1]: 3.4 µM
Structure (SMILES): Cc1cccc(N(C)C(=O)c2ccc(-c3ccc(Cl)cc3)o2)c1

IC50 [1]: 4.6 µM
Structure (SMILES): CN1CCc2ccc(NC(=O)c3ccc(-c4ccc(Cl)cc4)o3)cc21
